Experimental data reported in patent US9493539B2, “Peptides associated with HLA-DR MHC class II molecules involved in autoimmune diseases” (LONDON HEALTH SCIENCES CENTRE RESEARCH INC., priority 2003, dated 2016).
Square brackets hold non-standard residues; d marks the D form. Ends that are not written are not given here. Cit = NC(=O)NCCC[C@H](N)C(=O)O

Key:
[1] = test system: draining lymph node cells; assay: T cell proliferation recall response ([3H] thymidine) after peptide immunization of DR4-IE tg mice; format: cell-based, mouse; settings: for T cell proliferative response: DR4-IE tg mice immunized with the peptide, 10 days later cells challenged in vitro with same peptide; for proliferative response in presence of anti-DR antibody: immunizing peptide plus anti-DR antibody
Method: (§1) DR4 tg mice were immunized intradermally at the interior side of both hind legs with 100 μl of peptide (1 μg/μl) emulsified in CFA (Difco Laboratories, Detroit, Mich.) in a 1:1 volume ratio. After 10 days, mice were sacrificed and their draining lymph nodes were removed for in vitro proliferation and cytokine assays.
(§2) Cell suspensions were prepared from the draining lymph nodes and cultured in 96-well plates at a concentration of 4×10^5 cells/well in the presence or absence of peptide antigen for 4 days. Anti-DR antibody (BD PharMingen, Mississauga, ON) was added to some cultures (1 μg/ml) to confirm DR restricted T cell responses as described previously (Andersson E C, Hansen B E, Jacobsen H, Madsen L S, Andersen C B, Engberg J, Rothbard J B, McDevitt G S, Malmstrom V, Holmdahl R, Svejgaard A, Fugger L. 1998. Definition of MHC and T cell receptor contacts in the HLA-DR4 restricted immunodominant epitope in type II collagen and characterization of collagen-induced arthritis in HLA-DR4 and human CD4 transgenic mice. Proc. Natl. Acad. Sci. USA. 95:7574). Culture supernatants were removed after 78 hrs to test IFN-γ production by ELISA (BD PharMingen, Mississauga, ON) as described previously (Hill, J. A., Wang, D., Jevnikar, A. M., Cairns, E., Bell, D. A. 2002. The relationship between predicted peptide-MHC class II affinity and T cell activation in a HLA-DRβ1*0401 MHC class II mouse model. Arthritis Res. 5:R40). Cytokine production was measured in duplicate and represents the average antigen specific cytokine production (cytokine production in control samples+2 SD were subtracted from the peptide specific cytokine production)±SD. Eighteen hours before culture termination, 1 μCi of [^3H] thymidine (ICN Biomedicals, Montreal, PQ) was added to each well to assess T cell proliferation. Proliferation experiments were conducted in triplicate and results are presented as average proliferation in cpm±SD or stimulation index (cpm of experimental sample/cpm of control sample)±SEM.

[2] = test system: draining lymph node cells; assay: IFN-γ production by ELISA after in vitro challenge with immunizing peptide; format: cell-based, mouse; settings: DR4-IE tg mice immunized with the peptide
Method: as §1, §2

[3] = target: HLA-DRB1*0101 (Homo sapiens, UniProt P01903+P01911, A100R/D57E/F55L/F60I/F76Y/I96L/L162R/M171V/P40L/Q125E/R42F/V115G/Y59C); assay: Peptide-binding (competition) assay to purified MHC class II; settings: DRB1*0101, shared epitope positive
Method: (§3) Peptide binding affinity to purified HLA-DRB1*0101, *0401, *0404, *0301, *0701, *0802, *1101, and *1302 molecules was determined relative to radio-labelled peptide probes as described previously (Southwood S, Sidney J, Kondo A, del Guercio M F, Appella E, Hoffman S, Kubo R T, Chesnut R W, Grey H M, Sette A. 1998. Several common HLA-DR types share largely overlapping peptide binding repertoires. J. Immunol. 160:3363). The nM concentration of unlabelled vimentin peptide necessary for 50% inhibition of the labelled peptide to the purified HLA-DRB1 molecules (IC50) was used as an approximation of the affinity of interaction ([…]). Results are expressed as the inverse of the IC50 values measured in nM.

[4] = target: HLA-DRB1*0401 (Homo sapiens, UniProt P01903+P01911, A100K/A169T/F76Y/I96L/K127E/L162R/M171V/N62H/P40V/Q125Y/R42H/S133A/S149N/S66Y/V115G/V209L/W38E); assay: as above; settings: DRB1*0401, shared epitope positive
Method: as §3

[5] = target: HLA-DRB1*0404 (Homo sapiens, UniProt P01903+P01911, A100R/A169T/F76Y/I96L/K127E/L162R/M171V/N62H/P40V/Q125Y/R42H/S133A/S149N/S66Y/V209L/W38E); assay: as above; settings: DRB1*0404, shared epitope positive
Method: as §3

[6] = test system: shared epitope negative (DRB1*0301, *0701, *0802, *1101, *1302); assay: as above; design: species or system human
Method: as §3

change of peptide affinity on conversion of arginine to citrulline ([6]; vs Vim 65-77) | Substance | T cell proliferative response [1] | proliferative response in presence of anti-DR antibody [1] | IFN-γ production [2] | relative affinity for purified MHC [3] | relative affinity for purified MHC [4] | relative affinity for purified MHC [5] | activation of T cells primed by Vim R70Cit ([1]; Vim R70Cit immunized mice, challenged with the unmodified peptide, 10 μg/ml) | relative affinity for purified MHC [6]
did not increase peptide affinity | SAVRACitSSVPGVR (SAVRA[Cit]SSVPGVR) [Vim R70Cit, altered human vimentin peptide 65-77] | strong proliferative response | could also be inhibited | accompanied by IFN-γ production | strikingly high affinity | strikingly high affinity | strikingly high affinity |  | 
 | AGWLARRSVRYPI (Human) [P4R, altered human aggrecan peptide 280-292] | did not induce |  | did not induce |  |  |  |  | 
 | AGWLADRSVRYPI (Human) [P4D, human aggrecan peptide 280-292] | strong proliferative response | inhibited | accompanied by IFN-γ production |  |  |  |  | 
 | SAVRARSSVPGVR (Human) [Vim 65-77, human vimentin peptide 65-77, unmodified] | did not induce T cell activation |  | did not induce T cell activation | low to intermediate affinity | low to intermediate affinity | low to intermediate affinity | could not be activated | low to intermediate affinity
 | AGWLACitRSVRYPI (AGWLA[Cit]RSVRYPI) [P4Cit, altered human aggrecan peptide 280-292] | induced | inhibited | induced |  |  |  |  | 
